Key:
CXCR3 [1] = target: T1, CXCR3 (Homo sapiens, UniProt P49682); experiment: [3H]-VUF11211 radioligand displacement after LC nanofractionation, HEK293/CXCR3 membranes; […]-CXCL10 displacement also shown; type: binding
T1 construct: human CXCR3 in HEK293/CXCR3 membranes
T1 sequence (P49682 1-368): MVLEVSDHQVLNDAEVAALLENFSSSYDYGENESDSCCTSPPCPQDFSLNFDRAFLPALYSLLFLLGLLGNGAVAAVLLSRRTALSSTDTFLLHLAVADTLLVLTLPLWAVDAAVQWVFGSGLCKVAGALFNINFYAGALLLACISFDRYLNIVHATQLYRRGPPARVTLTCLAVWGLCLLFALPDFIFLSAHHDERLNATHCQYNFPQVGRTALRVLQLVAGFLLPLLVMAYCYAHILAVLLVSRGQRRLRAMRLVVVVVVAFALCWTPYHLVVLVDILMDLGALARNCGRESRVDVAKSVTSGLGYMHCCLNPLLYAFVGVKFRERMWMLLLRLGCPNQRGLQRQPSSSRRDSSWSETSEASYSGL

CXCR3 [2] = target: T1, CXCR3; experiment: [3H]-VUF11211 radioligand displacement after LC nanofractionation, HEK293/CXCR3 membranes; type: binding

Ki (CXCR3 [2]) [nM]	Structure (SMILES)	Kd (CXCR3 [1]) [nM]
–	CCNC(=O)c1cnc(N2CCN(C3CCN(Cc4ccc(Cl)cc4)CC3)[C@@H](CC)C2)c(Cl)c1 [VUF11211]	0.501
12.6	CCOc1ccc(-n2c([C@@H](C)N(Cc3cccnc3)C(=O)Cc3ccc(F)c(C(F)(F)F)c3)nc3ncccc3c2=O)cc1 [NBI-74330]	–

— paper PMC4551560, “Metabolic profiling of ligands for the chemokine receptor CXCR3 by liquid chromatography-mass spectrometry coupled to bioaffinity assessment” (Analytical and Bioanalytical Chemistry, 2015)
